Test results: article PMC10605010, “Immunotechniques for the Group Determination of Macrolide Antibiotics Traces in the Environment Using a Volume-Mediated Sensitivity Enhancement Strategy” (Biosensors, 2023)
≈ marks a conversion by molar mass, not a printed value.

What was measured:
[1] = tested on: anti-BSA-cmoCLA(ae) antibody; assay: PrG-ELISA, self-assembly on coated protein G, direct competitive; assay type: binding, rabbit; conditions: 1.5 h, coating Ab 200 µL, standard/sample 250 µL
Description: (§1) Another important consideration was the enhancement of the functional activity of antibodies through their oriented immobilization on the surface of polystyrene and its potential impact on the method sensitivity. This was achieved by interacting the adsorbed protein G with the antibody Fc fragments, allowing the antibody-binding fragments to remain spatially accessible. This interaction could be implemented in a step-by-step manner or as a result of self-assembly (Figure 4A). The step-by-step procedure involved the initial formation of a complex between the coated protein G and the antibody (PrG-Ab), followed by a competitive assay step. An alternative self-assembly method implied the competitive interaction of antibody with an analyte (sample) and a tracer in the solution with simultaneous binding to the coated protein G (PrG).

[2] = tested on: anti-BSA-cmoCLA(ae) antibody; assay: PrG-Ab-ELISA, step-by-step oriented antibody coating via protein G, direct competitive; assay type: binding, rabbit; conditions: 0.5 h, coating Ab 200 µL, standard/sample 250 µL
Description: as §1

[3] = tested on: Anti-CLA(IgG) coupled to Sepharose beads; assay: Immunofiltration assay (IFA); assay type: binding, rabbit; conditions: overnight, Ab volume 50 µL, standard/sample 10,000 µL
Protocol: Sepharose 4B or Sepharose-CL-2B (Pharmacia, Uppsala, Sweden) were washed with water on a porous glass filter and then squeezed out with a soft press from excess moisture. The washed beads (2 g) were placed in a vial with sodium periodate solution (60 mg in 5 mL H2O) and mixed with a rotary mixer (ELMI Ltd. laboratory equipment, Riga, Latvia) for 45 min. An additional 30 min rotation continued after the addition of ethylene glycol (250 µL). The beads were then washed with water and finally with CBB (pH 9.6) squeezed mildly out. Each of the activated sorbents was placed in a vial for mixing with anti-cmoCLA IgG (10 mg) in 2 mL CBB (pH 9.6) for 48 h at 4 °C. The excess antibody was squeezed out. The beads were then washed with water and placed in a sodium borohydride solution (4 mg/4 mL) for 1 h with occasional shaking. After the final washing with water and PSBT, the resulting immune sorbents were stored at 4 °C in 10 mL of PSBT preserved with Merthiolate (1 mg).
To implement these assay formats, the IgG fraction was first isolated from antiserum via the double precipitation method using caprylic acid and ammonium sulfate, described in detail in [22]. The principle of the assays is based on competition between analyte and enzyme-labeled antigen (HRP-aecAZI) for binding to an antibody coated on the plate (dcELISA) or coupled covalently to Sepharose beads. The latter immunosorbent was used in the immunobeads assay (IBA) and immunofiltration assay (IFA).
Immunofiltration assay (IFA). The IFA principle consisted of passing a mixture of standard/sample (10 mL) and HRP-aecAZI through the beads with immobilized antibodies (Anti-CLA(IgG)-S4B or Anti-CLA(IgG)-SCL2B) placed in a homemade column and recording the enzymatic activity of the captured HRP-aecAZI. Briefly, the optimal volume of the prepared immunosorbent was placed on a pre-moistened filter support in a 10 μL filtered micropipette tip, which was then accurately attached to a syringe. This homemade column was filled with 10 mL of the standard analyte or water sample, avoiding the formation of bubbles. […]

[4] = tested on: anti-BSA-cmoCLA(ae) antibodies; set-up: method as in PMID 25256165; conditions: coating antigen GEL-cmoCLA(ae), homologous; cited from earlier work
[5] = tested on: antibody to immunogen BSA-cmoERY(ma); conditions: milk; ERY = 100; cited from earlier work

Compound: CC[C@H]1OC(=O)[C@H](C)[C@@H](O[C@H]2C[C@@](C)(OC)[C@@H](O)[C@H](C)O2)[C@H](C)[C@@H](O[C@@H]2O[C@H](C)C[C@H](N(C)C)[C@H]2O)[C@](C)(O)C[C@@H](C)C(=O)[C@H](C)[C@@H](O)[C@]1(C)O [ERY, Erythromycin]
- IC10 (LOD) [1]: 0.007 ng/mL (≈ 0.00954 nM)
- IC20-IC80 (working range) [1]: 0.015 to 0.199 ng/mL
- IC50 [1]: 0.055 ng/mL (≈ 0.0749 nM)
- IC10 (LOD) [2]: 0.002 ng/mL (≈ 0.00273 nM)
- IC20-IC80 (working range) [2]: 0.006 to 0.054 ng/mL
- IC50 [2]: 0.020 ng/mL (≈ 0.0273 nM)
- IC10 (LOD) [3]: 0.001 ng/mL (≈ 0.00136 nM)
- IC20-IC80 (working range) [3]: 0.002 to 0.019 ng/mL
- IC50 [3]: 0.005 ng/mL (≈ 0.00681 nM)
- IC50 [4]: 0.20 ng/mL (≈ 0.273 nM)
- CR [5]: 100%
